Experiment [1] deals with T1, Cathepsin G (Homo sapiens) (UniProt P08311).
T1 sequence (whole entry): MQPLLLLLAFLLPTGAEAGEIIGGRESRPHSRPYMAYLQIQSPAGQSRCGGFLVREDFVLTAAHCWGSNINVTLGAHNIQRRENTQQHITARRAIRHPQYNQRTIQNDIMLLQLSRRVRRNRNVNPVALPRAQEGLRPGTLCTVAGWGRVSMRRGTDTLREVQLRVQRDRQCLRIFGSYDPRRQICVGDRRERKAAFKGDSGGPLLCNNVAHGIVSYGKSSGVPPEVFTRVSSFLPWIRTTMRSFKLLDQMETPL
Kind of experiment: Inhibitory activity against Cathepsin G (CatG) at 58 uM concentration.

For experiment [2], the target named is Chymotrypsinogen A (Bos taurus) (UniProt P00766). Kind of experiment: Inhibitory activity against Chymotrypsinogen at 58 uM concentration.
The target in experiment [3] is T2, Neutrophil elastase (Homo sapiens) (UniProt P08246).
T2 sequence (whole entry): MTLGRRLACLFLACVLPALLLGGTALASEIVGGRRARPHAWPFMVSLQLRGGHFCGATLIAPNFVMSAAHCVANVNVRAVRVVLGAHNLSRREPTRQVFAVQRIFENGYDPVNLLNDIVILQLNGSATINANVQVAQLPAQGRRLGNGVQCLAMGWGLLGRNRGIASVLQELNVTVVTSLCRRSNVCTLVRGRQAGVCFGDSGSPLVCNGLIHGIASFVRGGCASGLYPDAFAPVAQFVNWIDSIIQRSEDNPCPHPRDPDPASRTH
Kind of experiment: Inhibitory activity against Human Leukocyte Elastase (HLE) at 58 uM concentration.

Experiment [4] addresses T3, Chymotrypsin-like elastase family member 2A (Sus scrofa) (UniProt P08419).
T3 sequence (whole entry): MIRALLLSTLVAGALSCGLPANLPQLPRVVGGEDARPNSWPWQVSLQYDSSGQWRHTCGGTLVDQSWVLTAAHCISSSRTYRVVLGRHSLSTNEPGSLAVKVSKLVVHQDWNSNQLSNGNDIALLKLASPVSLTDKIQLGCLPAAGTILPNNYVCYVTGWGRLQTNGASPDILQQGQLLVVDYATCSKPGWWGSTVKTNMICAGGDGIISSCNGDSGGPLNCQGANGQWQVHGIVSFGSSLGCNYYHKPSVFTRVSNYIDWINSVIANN
Kind of experiment: Inhibitory activity against Porcine Pancreatic Elastase (PPE) at 58 uM concentration.

In experiment [5] the target is T4, Cathepsin G (Homo sapiens, UniProt P08311).
T4 sequence (P08311 whole entry): T1 sequence (whole entry)
Kind of experiment: Inhibition of Cathepsin G (CatG).

Experiment [6] has as its target T5, Neutrophil elastase (Homo sapiens, UniProt P08246).
T5 sequence (P08246 whole entry): T2 sequence (whole entry)
Kind of experiment: Compound was tested for the enzyme inhibitory activity against Human Leukocyte Elastase (HLE); NI = no inhibition.

The target in experiment [7] is T4, Cathepsin G. Kind of experiment: Compound was tested for the enzyme inhibitory activity against Cathepsin G (CatG); NI = no inhibition.
Experiment [8] concerns the target T1, Cathepsin G (Homo sapiens). Nature of the experiment: Inhibitory activity against Cathepsin G (CatG) at 62 uM concentration.
Experiment [9] has as its target Chymotrypsinogen A (Bos taurus) (UniProt P00766). Kind of experiment: Inhibitory activity against Chymotrypsinogen at 62 uM concentration; NI = no inhibition. The settings on record: Sus scrofa.
For experiment [10], the target named is T3, Chymotrypsin-like elastase family member 2A (Sus scrofa). Nature of the experiment: Inhibitory activity against Porcine Pancreatic Elastase (PPE) at 62 uM concentration.
For experiment [11], the target named is T2, Neutrophil elastase (Homo sapiens). Kind of experiment: Inhibitory activity against Human Leukocyte Elastase (HLE) at 62 uM concentration.
Experiment [12] concerns the target T1, Cathepsin G (Homo sapiens). Kind of experiment: Inhibitory activity against Cathepsin G (CatG) at 86 uM concentration.
In experiment [13] the target is T2, Neutrophil elastase (Homo sapiens). Nature of the experiment: Inhibitory activity against Human Leukocyte Elastase (HLE) at 86 uM concentration; NI = no inhibition.
Experiment [14] addresses T3, Chymotrypsin-like elastase family member 2A (Sus scrofa). Nature of the experiment: Inhibitory activity against Porcine Pancreatic Elastase (PPE) at 86 uM concentration; NI = no inhibition.
Experiment [15] deals with T5, Neutrophil elastase. Nature of the experiment: In vitro inhibition of human leukocyte elastase.
The target in experiment [16] is T4, Cathepsin G. Nature of the experiment: Compound was tested for the enzyme inhibitory activity against Cathepsin G.
For experiment [17], the target named is T5, Neutrophil elastase. Kind of experiment: Compound was tested for the enzyme inhibitory activity against Human Leukocyte elastase.
Experiment [18] concerns the target T1, Cathepsin G (Homo sapiens). Kind of experiment: Inhibitory activity against Cathepsin G (CatG) at 62 uM concentration; NI = no inhibition.
For experiment [19], the target named is Chymotrypsinogen A (Bos taurus) (UniProt P00766). Nature of the experiment: Inhibitory activity against Chymotrypsinogen at 62 uM concentration. The settings on record: Sus scrofa.
Experiment [20] addresses T5, Neutrophil elastase. Kind of experiment: Compound was tested for the enzyme inhibitory activity against Human Leukocyte Elastase (HLE) at 62 uM concentration.
Experiment [21] deals with T5, Neutrophil elastase. Kind of experiment: HLE-inhibitor (Human Leukocyte Elastase) dissociation constant determined by using Dixon Plot.
The target in experiment [22] is Chymotrypsinogen A (Bos taurus) (UniProt P00766). Kind of experiment: Inhibitory activity against Chymotrypsinogen at 30 uM concentration.
Experiment [23] addresses T1, Cathepsin G (Homo sapiens). Nature of the experiment: Inhibitory activity against Cathepsin G (CatG) at 30 uM concentration; NI = no inhibition.
The target of experiment [24] is T2, Neutrophil elastase (Homo sapiens). Kind of experiment: Inhibitory activity against Human Leukocyte Elastase (HLE) at 30 uM concentration.
Experiment [25] has as its target T3, Chymotrypsin-like elastase family member 2A (Sus scrofa). Nature of the experiment: Inhibitory activity against Porcine Pancreatic Elastase (PPE) at 30 uM concentration.
Experiment [26] concerns the target T1, Cathepsin G (Homo sapiens). Kind of experiment: Inhibitory activity against Cathepsin G (CatG) at 70 uM concentration.
In experiment [27] the target is Chymotrypsinogen A (Bos taurus) (UniProt P00766). Kind of experiment: Inhibitory activity against Chymotrypsinogen at 70 uM concentration; NI = no inhibition. The following applies: Sus scrofa.
Experiment [28] addresses T3, Chymotrypsin-like elastase family member 2A (Sus scrofa). Nature of the experiment: Inhibitory activity against Porcine Pancreatic Elastase (PPE) at 70 uM concentration; NI = no inhibition.
In experiment [29] the target is T2, Neutrophil elastase (Homo sapiens). Kind of experiment: Inhibitory activity against Human Leukocyte Elastase (HLE) at 70 uM concentration; NI = no inhibition.
Experiment [30] concerns the target T5, Neutrophil elastase. Kind of experiment: Compound was tested for the enzyme inhibitory activity against Human Leukocyte Elastase (HLE).

Active and inactive are the calls of the source. The calls are words filed in the database; no cut-off is given here.

For `O=C(O)c1cc(O)c2c(c1)C(=O)c1cc(O)cc(O)c1C2=O`, the inhibition (as a rule, the relative decrease from the control value, in per cent) in experiment [1] turned out to be 14%; in experiment [2], 3%; in experiment [3], 21%; in [4], 9%.

`C=CCc1ccc2c(c1OC)C(=O)c1c(OC)cccc1C2=O`: the figures for the IC50 in [5] and in [6] were over 60 µM and “Not Active”, respectively.

As to `COc1cccc2c1C(=O)c1c(ccc(Cc3ccccc3)c1OC(C)=O)C2=O`, the IC50 entry in experiment [7] and in [6] was “Not Active” throughout.

Turning to `O=C1c2cc(O)cc(O)c2C(=O)c2c(O)cc(CO)cc21`, the inhibition in experiment [8] was determined as 22%; in experiment [10], 4%; in [11] it was 26%. Besides, in experiment [9], the inhibition entry was “inactive”.

As to `O=C(O)c1cc(O)c2c(c1)C(=O)c1cccc(O)c1C2=O`, the inhibition in experiment [12] stood at 22%. In addition, the inhibition entry in experiment [13] and in experiment [14] was “inactive” each time.

Regarding `COc1cccc2c1C(=O)c1c(ccc(Cc3ccccc3)c1O)C2=O`, the IC50 (in general, the concentration at which inhibition is half-maximal) in [7] is “No inhibition”; in experiment [15], 6.7 µM.

In the case of `Cc1ccc2c(c1O)C(=O)c1ccccc1C2=O`, the IC50 in [16] was over 60 µM; in experiment [17], 11 µM.

With `COc1cccc2c1C(=O)c1c(ccc(CC(C)C)c1OC(C)=O)C2=O`, the IC50 entry in experiment [7] is given as “No inhibition”.

For the compound `CC(=O)Oc1cc(OC(C)=O)c2c(c1)C(=O)c1cc(C)cc(OC(C)=O)c1C2=O` [EMODIN TRIACETATE], in [18], the inhibition entry is “inactive”. The inhibition amounted to 3% in experiment [19], 22% in experiment [10] and 79% in experiment [11]. The compound further registered a half-inhibitory concentration (IC50) in experiment [20] of 13 µM.

Consider `CCCCOC(=O)Oc1cc(OC(=O)OCCCC)c2c(c1)C(=O)c1cc(C)cc(OC(=O)OCCCC)c1C2=O`, for which the IC50 in experiment [15] is 1.3 µM.

In experiment [15], `Cc1ccc2c(c1O)C(=O)c1c(O)cccc1C2=O` returned an IC50 of 9.9 µM.

`CCc1ccc2c(c1)C(=O)c1ccccc1C2=O`: in [7], the IC50 result is recorded as “Not Active”.

With `COc1cccc2c1C(=O)c1c(ccc(CC3CO3)c1O)C2=O` (configuration not stated), the IC50 result in [7] and in experiment [6] was “Not Active” in each case.

In turn, `CCCc1ccc2c(c1O)C(=O)c1c(O)cccc1C2=O` yielded an IC50 in experiment [15] of 4.2 µM.

`CCCCCCc1ccc2c(c1OC(=O)OCCCC)C(=O)c1c(OC(=O)OCCCC)cccc1C2=O`: inhibition in experiment [15] was half-maximal at 2.1 µM (IC50). Besides, the affinity in [21], expressed as Ki, was 0.43 µM.

With `CCCCCc1ccc2c(c1O)C(=O)c1c(OC)cccc1C2=O`, the figures for the IC50 in [5] and in experiment [15] were over 60 µM and 6.1 µM, respectively.

As to `COc1cc(OC)c2c(c1)C(=O)c1cc(C)cc(OC)c1C2=O`, the inhibition in [22] came out at 6%; in experiment [24], 16%; in [25], 4%. Also, the inhibition result in experiment [23] is “inactive”.

As for `CC(=O)Oc1cccc2c1C(=O)c1c(OC(C)=O)cc(C(=O)O)cc1C2=O`, the inhibition in [26] came to 5%. For the same compound, the inhibition result in experiment [27], in [28] and in [29] was “inactive” in each case.

For `CCCCOC(=O)Oc1cc(C)cc2c1C(=O)c1c(OC(=O)OCCCC)cc(OC)cc1C2=O`, the inhibitory constant (Ki) (in general, a dissociation constant, usually derived from enzyme kinetics or from competition with a known ligand) in experiment [21] was found to be 2.8 µM. In experiment [30], this compound returned an IC50 of 2.5 µM.

In the case of `COc1cccc2c1C(=O)c1c(ccc(C)c1O)C2=O`, the IC50 result in [7] is “Not Active”; in experiment [15] it was 19 µM.

The record behind these values is ChEMBL document CHEMBL1125455, “Novel anthraquinone inhibitors of human leukocyte elastase and cathepsin G” (J Med Chem, 1992).
